# Test results as given in US20210340130A1, “Compositions and methods for treating attention deficit disorders” (priority 2016, published 2021).
# How the values were obtained:
# acetylcholine esterase = acetylcholine esterase (Homo sapiens, UniProt P22303); assay: Acetylcholine esterase functional inhibition; type: biochemical
# adult patients with ADHD = assay: Phase 2 randomized, double-blind, 2-period crossover trial in adults with ADHD; type: in vivo
# Experimental: *This phase 2 study evaluated the efficacy, tolerability and safety of CX717 in the treatment of adult patients with ADHD. The study was designed and executed as a randomized, double-blind, multi-center, 2-period crossover study comparing 2 doses of CX717 (200 mg, or 800 mg, BID) with placebo. Each treatment period lasted 3 weeks with a 2-week washout in between. Subjects met DSM-IV criteria for adult ADHD and had moderate to severe symptoms. The primary efficacy measure was the change from baseline on the ADHD Rating Scale (ADHD-RS) with adult ADHD prompts.
# The present study further examined the clinical efficacy, tolerability and safety of CX717 as a drug treatment for adults with ADHD. […] Each treatment period was 3 weeks in duration with a 2-week washout in between. The study design was modeled after several similarly published ADHD studies with atomoxetine and stimulants, (Spencer et al.) with sample sizes in the mid 20s. Since this is the first such study with CX7171 in ADHD, it is assumed that efficacy would be achieved using historical assumptions in effect size, therefore, a total of 60 subjects were to be randomized.
# All patients met DSM-IV criteria for adult ADHD, established by the Adult ADHD Clinical Diagnostic Scale (ACDS) Version 1.2. All patients gave written informed consent prior to enrollment and the conduct of the study was approved by either the […] Review Board (IRB) at each site or by the central IRB. Each subject had at least moderately severe ADHD symptoms (ADHD-RS score of ≥22; Clinician's Global Impression of Severity [CGI-S] score of ≥4). Each subject was male, and between 18-50 years old, inclusively. Male patients were selected because the necessary reproductive toxicology studies that would have allowed women of childbearing potential to be included in the study had not been completed.
# CX717 capsules were administered orally as 200 mg BID or 800 mg BID doses. […] The study was divided into a series of periods: screening period—up to 4 weeks, treatment period 1-3 weeks; wash-out period—2 weeks; treatment period 2-3 weeks; follow-up period—approximately 1 week.
# The primary efficacy outcome measure was the comparison of each dose of CX717 versus placebo on the change from baseline in ADHD symptoms as measured by the ADHD-RS at Week 3. Secondary efficacy parameters included comparisons of each dose of CX717 versus placebo for the ADHD-RS Inattentiveness Subscale Score of the ADHD-RS.
# Safety was evaluated by adverse events (AEs), clinical laboratory tests, vital signs, physical examination, and electrocardiograms (ECGs).
# The primary efficacy endpoint was the change from baseline in the ADHD-RS total score. Variables for the primary endpoint as well as for the secondary endpoint were based on within patient comparisons of high dose with placebo and low dose with placebo. The analyses treated subjects receiving high dose or placebo in either order as a unique entity and similarly, subjects who received low dose or placebo in either order as a unique group of its own. The primary efficacy analysis utilized the paired t-test. Descriptive statistics (number of observations, mean, standard deviation, median, minimum and maximum values) for the total score and the change from baseline were calculated by treatment group and visit and the last value was presented for both the intent-to-treat (ITT) and per protocol (PP) populations. All hypotheses testing for change from Baseline of scores, except testing for significant interaction, were performed at the 2-tailed 5% alpha significance level. P-values, based on 2-tailed tests, were rounded to 1 more decimal place than the standard deviation, up to a maximum of 3 decimal places; p-values <0.001 were presented as ‘<0.001’ in all tables.
# [1] = Phase 1 studies (safety, tolerability, pharmacokinetics); type: in vivo
# Rat (Lister) = assay: 5 Choice serial reaction time task; type: in vivo
# Description: Another useful animal model for evaluating ampakine activity is the Five Choice Serial Reaction Time Task in Rats. This assay requires rats to provide a single nose poke in response to a light stimulus presented in one of five locations within a 9-hole chamber. With a correct response a reward is delivered that the rat collects from the food magazine at the rear of the chamber. The withdrawal of its head from the food magazine initiates a short inter-trial interval followed by the presentation of the next randomly presented stimulus. An incorrect response results in a time out period (non-reinforcement) followed by the initiation of a new trial. Groups of 12 rats were used in this study, and all rats received all treatments using a randomized sequence. For evaluation using this model, CX1739 was selected as the exemplary low impact ampakine, administered at doses of 3 and 10 mg/kg i.p. 20 min prior to the start of the study.
# 64 GPCRs = assay: Cell-based functional GPCR assays (Table 4.2.2-1); settings: agonist at 30 μM, antagonist at 37.5 μM; 64 functional GPCR assays
# Experimental: Additional studies involving G-protein coupled receptor assays were conducted for CX1739 to further illustrate the scope and flexibility of binding activity profiling available for ampakine screening according to the invention. CX1739 was evaluated in a second broad in vitro pharmacology screen, comprising cell-based functional G-protein coupled receptor assays for 64 GPCRs, identified in Table 4.2.2-1 below.
# [2] = molecular target: cytosolic testosterone receptor (Homo sapiens, UniProt P10275); assay: Radioligand binding, testosterone receptor; settings: read-out: inhibition of binding of a reference ligand
# [3] = system: non-selective alpha1 adrenergic receptor; assay: Radioligand binding, alpha1 adrenergic receptor; settings: 100 μM
# Chain of acetylcholine esterase (P22303 32-614): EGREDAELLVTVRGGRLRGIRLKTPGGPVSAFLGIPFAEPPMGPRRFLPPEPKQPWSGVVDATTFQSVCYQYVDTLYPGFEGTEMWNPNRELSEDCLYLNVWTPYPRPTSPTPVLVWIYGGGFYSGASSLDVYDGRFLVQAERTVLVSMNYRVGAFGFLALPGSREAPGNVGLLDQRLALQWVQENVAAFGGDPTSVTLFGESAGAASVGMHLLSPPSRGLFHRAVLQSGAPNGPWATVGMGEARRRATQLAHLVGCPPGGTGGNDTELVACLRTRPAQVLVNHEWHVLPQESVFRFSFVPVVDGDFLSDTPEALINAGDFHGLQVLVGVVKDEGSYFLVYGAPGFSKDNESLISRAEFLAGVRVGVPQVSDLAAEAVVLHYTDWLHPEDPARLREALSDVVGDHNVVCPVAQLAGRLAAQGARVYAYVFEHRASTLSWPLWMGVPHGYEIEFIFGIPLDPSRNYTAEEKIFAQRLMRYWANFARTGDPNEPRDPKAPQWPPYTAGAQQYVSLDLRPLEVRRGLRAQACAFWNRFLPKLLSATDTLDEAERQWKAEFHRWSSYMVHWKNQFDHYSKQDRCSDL
# Chain of cytosolic testosterone receptor (P10275 whole entry): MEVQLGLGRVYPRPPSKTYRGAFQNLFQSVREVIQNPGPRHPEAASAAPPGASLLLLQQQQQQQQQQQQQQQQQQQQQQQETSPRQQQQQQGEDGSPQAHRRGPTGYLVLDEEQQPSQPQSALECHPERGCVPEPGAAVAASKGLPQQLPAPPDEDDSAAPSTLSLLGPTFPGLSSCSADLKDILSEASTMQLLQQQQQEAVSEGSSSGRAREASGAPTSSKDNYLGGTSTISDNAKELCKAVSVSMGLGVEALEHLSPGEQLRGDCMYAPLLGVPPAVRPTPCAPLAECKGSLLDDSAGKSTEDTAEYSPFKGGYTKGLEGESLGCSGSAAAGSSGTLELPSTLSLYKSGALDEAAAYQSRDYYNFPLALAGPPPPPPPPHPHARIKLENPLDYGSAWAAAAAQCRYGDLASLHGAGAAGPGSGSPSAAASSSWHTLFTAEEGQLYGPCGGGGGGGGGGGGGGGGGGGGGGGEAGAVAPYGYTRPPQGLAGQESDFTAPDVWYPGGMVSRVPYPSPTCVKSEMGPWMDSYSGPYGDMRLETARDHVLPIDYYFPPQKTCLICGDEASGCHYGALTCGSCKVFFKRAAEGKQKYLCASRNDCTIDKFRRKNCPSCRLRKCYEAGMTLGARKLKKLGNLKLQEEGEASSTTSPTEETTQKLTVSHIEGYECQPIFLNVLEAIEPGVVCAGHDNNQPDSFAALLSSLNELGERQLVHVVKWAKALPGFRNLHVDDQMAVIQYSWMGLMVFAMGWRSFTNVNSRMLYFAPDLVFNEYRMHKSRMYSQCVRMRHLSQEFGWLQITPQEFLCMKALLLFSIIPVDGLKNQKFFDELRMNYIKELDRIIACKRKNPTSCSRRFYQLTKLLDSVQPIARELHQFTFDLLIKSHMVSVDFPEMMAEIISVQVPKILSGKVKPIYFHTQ
smiles,measurement,setting,value
"O=C(c1ccc2nonc2c1)N1CCOCC1 [CX717, 1-(benzofurazan-5-ylcarbonyl)morpholine]",Ki,acetylcholine esterase,165 µM
same,inhibition at 100 µM,acetylcholine esterase; 100 μM,53%
same,ADHD-RS total and subscales versus placebo,adult patients with ADHD; 200 mg BID,no statistically significant differences
same,deaths or serious adverse events,adult patients with ADHD; 200 mg or 800 mg BID for 3 weeks,No deaths or serious adverse events
same,"total ADHD-RS, repeated measures analysis at endpoint","adult patients with ADHD; 800 mg BID vs placebo, p=0.002",superior efficacy compared to placebo
same,"ADHD-RS hyperactivity subscale, repeated measures analysis","adult patients with ADHD; 800 mg BID vs placebo, p=0.017",superior efficacy compared to placebo
same,"ADHD-RS inattentiveness subscale, repeated measures analysis","adult patients with ADHD; 800 mg BID vs placebo, p=0.027",superior efficacy compared to placebo
same,mean change from baseline of ADHR-RS total score,"adult patients with ADHD; 800 mg, 504 h",−9.95
same,ADHD-RS hyperactivity subscale mean difference vs placebo,"adult patients with ADHD; active dose vs. placebo, last value",1.94
same,tolerability and safety parameters,"adult patients with ADHD; either dose (200 mg or 800 mg BID), 3 weeks",well tolerated with no clinically significant changes in cardiovascular and other safety parameters
same,overall incidence of treatment-emergent adverse events (TEAEs),"adult patients with ADHD; high dose (800 mg BID), placebo high dose 56%",75%
same,ADHD-RS hyperactivity subscale mean difference vs placebo,"adult patients with ADHD; high dose, Week 1",2.00
same,ADHD-RS hyperactivity subscale mean score (change from baseline),"adult patients with ADHD; high dose, Week 1, ITT, placebo −2.22, p=0.192",−4.22
same,ADHD-RS hyperactivity subscale mean difference vs placebo,"adult patients with ADHD; high dose, Week 3",3.18
same,ADHD-RS hyperactivity subscale mean score (change from baseline),"adult patients with ADHD; high dose, Week 3, ITT, placebo −2.78, p=0.050",−5.68
same,difference from placebo in mean change of ADHR-RS total score,"adult patients with ADHD; high dose, after 3 weeks",−4.73
same,ADHD-RS hyperactivity subscale mean difference vs placebo,"adult patients with ADHD; high dose, last value",3.00
same,most frequently reported adverse events,adult patients with ADHD; in vivo,Sleep disturbances and headache
same,"ADHD-RS hyperactivity subscale versus placebo, repeated measures",adult patients with ADHD; low dose,No difference
same,ADHD-RS total score versus placebo,adult patients with ADHD; low dose (200 mg BID),did not differ from placebo
same,overall incidence of treatment-emergent adverse events (TEAEs),"adult patients with ADHD; low dose (200 mg BID), placebo low dose 55%",73%
same,absorption,[1]; human,dose-proportional manner
same,half-life,"[1]; human, in vivo, read-out: elimination half-life (t1/2)",9 to 10 h
same,Tmax,"[1]; human, in vivo, read-out: time-to-maximum concentration (tmax)",4 to 5 h
same,tolerability in healthy volunteers,[1]; in vivo,well-tolerated with no serious AEs
"CN(C(=O)c1ccc2nonc2c1)C1CCOCC1 [CX1739, N-Methyl-N-tetrahydro-2H-pyran-4-yl-[2,1,3]-benzoxadiazole-5-carboxamide]",latency to correct responses,Rat (Lister); 10 mg/kg,significantly reduced
same,omissions,Rat (Lister); 10 mg/kg,significant improvement
same,accuracy of responding,Rat (Lister); 3 and 10 mg/kg ip,significantly improved
same,number of premature responses,Rat (Lister); 3 and 10 mg/kg ip,reduced
same,Minimum Effective Dose,"Rat (Lister); IP, dose range 3-10 mg/kg",3 mg/kg
same,GPCR agonist and antagonist activity,64 GPCRs,did not exhibit any significant agonist or antagonist activity
same,inhibition at 100 µM,[2],64%
same,inhibition of binding of a reference ligand,[3],67%
